# Laboratory results as given in patent publication US20110208162A1, “METHODS FOR PREVENTING AGGREGATION OF ADIPOSE STROMAL CELLS” (Indiana University Rsearch and Technology Corporation, priority 2008, published 2011).
# Entries after “also recorded” stand apart in the source; their conditions may differ.
# Experiments:
# [1] = test system: ASCs; experiment: Aggregation of fresh SVF or cultured ASCs in suspension buffer; format: cell-based, porcine or human; settings: for concentration dependence of inhibition of ASC aggregation: EDTA detached ASCs, 2 hours vigorous shaking
# Method: SVF was isolated from either excised dorsal hump (porcine) or lipoaspirated subcutaneous (human) adipose tissues using reagents and protocols supplied by Tissue Genesis Inc. (TGI). Cells were used either fresh or after enrichment for stromal cells, containing adipose-derived stem cells (ADSC), by attachment to and growth on uncoated tissue culture plastic. Low passage (P1-P4) cultured ASCs were detached from plastic by 2 mM EDTA treatment. 2−3×10^6 fresh SVF or cultured ASCs were incubated for increasing times in 1 ml of TGI suspension buffer, containing human serum proteins, under varying conditions as indicated in Figure legends. Cell suspensions were vigorously rocked during incubation. At the times indicated the suspensions were observed macroscopically, noting aggregate size and number, as well as microscopically, to quantitate aggregates (defined as a tightly associated grouping of 4 or more cells) as well as individual cells.
# [2] = test system: freshly isolated ASC; experiment: Observation of aggregation of freshly isolated ASC after resuspension in delivery medium; format: cell-based, pig; settings: pre-treating SVF with heparin before infusion
# Method: Isolation of the adipose stromal-vascular fraction (SVF). Fat was isolated using equipment and reagents from TGI-100 kits (Tissue Genesis, Inc, Honolulu, Hi., USA) following the manufacturer's instructions, with modifications as necessary in order to process the subcutaneous pig fat. Briefly, the fat was finely minced in a sterile container before washing 3 times with the supplied buffer solution. The fat was transferred into 50 ml conical screw cap centrifuge tubes before adding 10 ml of filtered ADIPASE™ solution. The tissue was dissociated by incubation in an Enviro-Genie incubator shaker for 2.5 hours, instead of the manufacturer's recommended digestion time for human fat of 45 minutes. The stromal-vascular pellet was recovered by centrifugation, filtered serially through 100 μm then 40 μm diameter pore size polypropylene filters (FALCON®). Viable cell counts were obtained using a hemacytometer and staining was performed with Trypan blue. Only cells larger than approximately 8 μm in diameter were counted. The cells were resuspended in a 20 ml cell the supplied suspension medium immediately before delivery. In the ASC-H group, the suspension medium contained 50 U heparin/ml. The cells were continuously mixed gently by hand until loaded into the syringe for delivery.
# Preparative yield of ASC. […]
# [3] = test system: ASC; experiment: ASC proliferation in presence of heparin; format: cell-based
compound,measurement,setting,value
"O=C(O)CN(CCN(CC(=O)O)CC(=O)O)CC(=O)O [EDTA, ethylenediaminetetra-acetic acid]",effect of EDTA on aggregation with co-addition of Ca^2+,[1]; EDTA then 7 mM Ca^2+,reversed
same,cell aggregation with EDTA in the buffer,"[1]; cultured ASCs, EDTA during incubation",inhibited; also recorded: blocked
heparin,aggregation at the highest concentration used,[1]; 400 μg/ml,still persisted
same,concentration dependence of inhibition of ASC aggregation,[1],dose dependent
same,concentration dependence of inhibition of ASC aggregation,[1]; listed as Heparin,concentration dependent
same,most effective concentration used for inhibition of ASC aggregation,[1]; equals 100 U/ml,400 µg/mL
same,aggregation of cells,[1]; heparin 400 μg/ml final conc. in buffer,inhibits
same,formation of aggregates of all sizes,"[1]; small 4-10 cells, large >10 cells, Image J counts",blocked
same,aggregation and subsequent microinfarctions,[2],substantially diminished
same,ASC proliferation,"[3]; highest concentration, 400 μg/ml",totally inhibited
same,ASC proliferation,"[3]; lowest concentration used, 50 μg/ml",inhibitory
trypsin,cell aggregation after trypsin pretreatment,"[1]; cultured ASCs, trypsin for 2 minutes",inhibited; also recorded: blocked
